SMILES strings stand for the structures.

This passage reports melting point results from a melting point compilation (Tetko et al.; mined from patent text by program, amines drawn as free bases though some values may be those of a salt).

Turning to `CN(C)C1(c2ccccc2)CCC(CNC(=O)NCCc2c[nH]c3ccccc23)CC1` (stereo not given), the melting point (commonly the temperature of the solid-liquid transition) fell in the range of 159 to 163 °C. In the case of `c1ccc(-c2nc3n(c2-c2ccccn2)CCS3)nc1` it was 142 to 143 °C. In the case of `C=C(C)COc1ccc(Br)cc1CN(CC)c1ccc(-c2cc(O)n(C)n2)nn1`, the melting point is 151 to 152 °C. As for `CC(=O)OC(CCl)c1cccnc1S(N)(=O)=O` (stereo not given), the melting point was 146 to 147 °C. To `COC(=O)C=C(N)CC(=O)OC` belongs 47 to 50 °C; to `COc1nc2cc(F)cc(C)c2nc1OC`, 107 to 109 °C; to `COc1ccc(S(=O)(=O)N2CCn3c(c(C(N)=O)c(Cl)c3-c3ccccc3)C2)cc1`, 194 to 195 °C. To `Cc1nccn1C(=O)Nc1ccccc1` belongs 205 to 207 °C; to `CCSC(N)=C(C#N)C(N)=S`, 200 to 201 °C; to `O=C(Cc1cccs1)c1c(O)c2cccnc2n(-c2ccccc2)c1=O`, 197 to 199 °C.

For the compound `CCCn1nc(OCc2ccc3ccccc3n2)cc1COc1c(CC)cccc1CC(=O)O`, the melting point fell in the range of 118 to 119 °C.

As to `Cc1nc(Cl)c2c(C)c(C)n(-c3c(C)cc(C)c4nsnc34)c2n1`, the melting point fell in the range of 169 to 171 °C. The compound `COc1cccc2c1S(=O)(=O)c1ccccc1C2(CCOS(C)(=O)=O)CCOS(C)(=O)=O` came in with a melting point of 200 to 202 °C. Take `CCCCCCCCCCCCCCCCOc1cc(C(=O)OCC)cc(C(=O)OCC)c1`: the melting point is 45 °C. In the case of `COc1cc(Nc2nccc(-c3ccc(N)s3)n2)cc(OC)c1OC` it was 161 to 162 °C; in that of `CSc1ccc2sc(C(N)=O)c(N(C)C)c2c1`, 140 to 142 °C; in that of `CCOC(Cc1ccc(NCCc2ccc(OS(C)(=O)=O)cc2)cc1)C(=O)O` (stereo not given), 130 to 134 °C.

Compound `N#Cc1c(N)oc2ccc(Cl)cc2c1=O` showed a melting point of 340 °C.

`Nc1ccccc1COc1ccn(-c2ccc(Cl)cc2)n1`: the melting point lay in the range of 81 to 83 °C. To `CCc1cc(Nc2ccc(N)cc2)n2nccc2n1` belongs 153 to 154 °C; to `c1ccc(N2CCN(c3ccccc3)C2Oc2ccc(C3N(c4ccccc4)CCN3c3ccccc3)cc2)cc1`, 218 to 221 °C; to `CN1C(=O)CN=C(c2ccccc2F)c2cc(NC(=O)N3CCSC3)ccc21`, 185 °C.

The compound `COc1cc2c(=O)c(OS(C)(=O)=O)cn(C)c2cc1OC` showed a melting point of 216 to 217 °C.

As to `CNS(=O)(=O)c1cccc(S(N)(=O)=O)c1`, the melting point lay in the range of 125 to 128 °C.

For the compound `N#CCOc1ccc2cc(-c3cnc(-c4cn(Cc5ccccc5)c5ccccc45)o3)ccc2c1`, the melting point lay in the range of 205 to 208 °C.

In turn, `CCOC(=O)Cc1nc(-c2ccccc2)c(-c2ccccc2)o1` yielded a melting point of 71 to 72 °C. `O=C(NCCCSc1cccnc1)c1cccs1` displayed a melting point of 66 to 67 °C. In the case of `CC(C)(C)C(=O)C(F)n1cncn1` (stereo not given) it was 54 to 55 °C; in that of `COc1cc2c(cc1OC)CN(CCCc1cccc(NC(=O)c3cccc4c(=O)c5cccc(F)c5[nH]c34)c1)CC2`, 128 °C. To `O=C1c2ccccc2C2(O)Oc3ccc([N+](=O)[O-])cc3C12O` (stereo not given) belongs 206 to 207 °C; to `CCCCN1CCN(NC(=O)c2cc(Cl)c(N)cc2OC)CC1`, 174 °C; to `COc1cn2nc(OCCCN3CCN(C(c4ccccc4)c4ccccc4)CC3)ccc2n1`, 144 to 146 °C. `CNC(=O)c1cnn(-c2ccc(Cl)cc2Cl)c1C(F)(F)F`: the melting point was 143 to 144 °C. In the case of `O=C1c2cccc3cccc(c23)C(=O)N1CCCCBr` it was 113 to 115 °C.

In turn, `Cc1c(C)c2c(c(C)c1O)CCC(C)(C(=O)NC1CCN(c3ccc(NC(=N)c4cccs4)cc3)C1)O2` (stereo not given) registered a melting point of 135 to 138 °C.

`CCCc1ncc(CN2CCN(c3ccccc3OC)CC2)c(N)n1` registered a melting point of 130 °C. Compound `O=C1NC(=O)C(Cc2ccc3oc(Cc4ccc(O)cc4)nc3c2)S1` (stereo not given) gave a melting point of 201 to 204 °C. In the case of `COCn1ncc2cc(Cl)c(NC(=O)c3cc(C(F)(F)F)nn3-c3ncccc3Cl)c(C(=O)NC(C)C)c21` it was 180 to 182 °C; in that of `Cc1ccc(C(=O)n2nc(Nc3cccc(OCC#N)c3)nc2N)cc1`, 236 to 241 °C. In the case of `CCOC(=O)c1c(Cc2cc3c(cc2Cl)OCO3)c(-c2ccccc2)nn1CC1CCCCC1` it was 130 °C.

The compound `CC(C)(C)c1ccc(S(=O)(=O)N2c3ccccc3C[C@H]2C(=O)NCc2ccc(CC(=O)O)cc2)cc1` displayed a melting point of 80 to 85 °C.

As to `Cc1c(C(=O)c2ccccc2Cl)c(NC(=O)CI)cn1C`, the melting point lay in the range of 155 to 157 °C. Take `CNC(=O)n1cc(F)cnc1=O`: the melting point came out at 166 °C. For the compound `Cc1cc(Cc2cc(C(C)(C)C)cc(C(C)(C)C)c2O)c(O)c(-n2nc3ccccc3n2)c1`, the melting point was 171 °C.

As for `CCCCCCc1cnn(-c2ccccn2)c1O`, the melting point was 37 to 38 °C.

As to `NC(=O)c1nnn(Cc2cc(Br)cc(C(Cl)=C(Cl)Cl)c2)c1N`, the melting point lay in the range of 175 to 177 °C. With `CCOC(=O)c1ncn2c1CN(C)C(=O)c1c(Cl)cccc1-2`, the melting point was in the range of 229 to 230 °C. To `O=C1CNc2ccc(S(=O)(=O)Oc3ccccc3)cc2N1` belongs 253 to 254 °C; to `O=C(c1ccccc1)c1ccc(-c2cnn3c(O)ncnc23)cc1`, more than 300 °C.

`CN1CCC(CC2CN=C(c3cc4cccc(N(C)S(=O)(=O)c5cccs5)c4[nH]3)S2)=N1` (stereo not given): the melting point lay within 149 to 150 °C. In the case of `CC(C)C(C)(C)NC(=S)Nc1cc(Cl)cc(Cl)c1` it was 132 to 134 °C; in that of `C[Si](C)(C)CCOCn1ccnc1-c1c(N)n(CC2CC2)c2nc(Cl)ccc2c1=O`, 70 °C. `CCCN1CCC(c2c[nH]c3ccc(NS(C)(=O)=O)cc23)CC1` gave a melting point of 87 to 90 °C. In the case of `Nc1scc2c1C(=O)c1c(Cl)cccc1-2` it was 183 to 185 °C. Take `CCOC(=O)C(C)OCc1cc2nc(Cl)ccc2n1S(=O)(=O)c1ccc2nsnc2c1` (stereo not given): the melting point is 77 to 79 °C. In the case of `OCCc1ccc(Oc2cc(C(F)(F)F)ccn2)cc1` it was 78 to 79 °C; in that of `O=S(=O)(c1ccccc1)n1c(Cc2cccc(-c3cc4ccccc4n3S(=O)(=O)c3ccccc3)c2)cc2ccccc21`, 76 to 78 °C; in that of `CN(C(=O)OC[C@@]1(C)Cn2cc([N+](=O)[O-])nc2O1)c1ccc(Cl)cc1`, 131 to 133 °C. Consider `CCC(CC)n1ncn(-c2ccc(N3CCNCC3)cc2)c1=O`, for which the melting point was 135 to 137 °C. Consider `N#Cc1ncn2c(C(F)(F)F)cc(-c3ccc(Cl)cc3Cl)nc12`, for which the melting point worked out at 139 °C. To `COC(=O)c1cccn2c(C(=O)c3ccc(N4C[C@H](CNC(C)=O)OC4=O)cc3)cnc12` belongs 202 to 204 °C; to `CCOC(=O)C(=CNC1CC1)C(=O)c1cc(Cl)c(F)c(F)c1F`, 71 to 73 °C.

With `O=C1CCCc2nc3cc(Cl)ccc3c(NCc3ccccc3)c21`, the melting point fell in the range of 141 to 143 °C. Consider `NC(=O)CNC(=O)c1cccc(-c2cccc3cc(Cc4cc(F)cc(Cl)c4)sc23)n1`, for which the melting point lay within 200 to 201 °C. In turn, `Cn1cnnc1C(N)(c1ccc(I)cc1)c1ccc2c(c1)c(-c1cccc(Cl)c1)nc1nnnn12` (stereo not given) came in with a melting point of 238 °C. In the case of `O=[N+]([O-])c1c(NCC23CCCN2CCC3)ccc2ccccc12` it was 86 to 87 °C; in that of `COC(=O)[C@@](N)(CCSC)C(=O)c1ccc(NC[C@@H]2C[C@@H](O)CN2C(=O)OC(C)(C)C)cc1-c1ccccc1`, 81 °C; in that of `CCN(CC)CCOc1ccc(CNc2ncc3c(n2)N(C)C(=O)N(c2c(Cl)cccc2Cl)C3)cc1`, 137 to 138 °C.

`Clc1nccnc1N1CCNCC1`: the melting point was in the range of 47 to 53 °C. In turn, `O=C(OC1CCN(Cc2ccccc2)CC1)c1ccccc1[N+](=O)[O-]` returned a melting point of 98 to 99 °C.

`COc1cc(=O)[nH]c2cc(O)ccc2c1=O` returned a melting point of 273 to 275 °C.

For `ON=C(c1ccccc1)C(O)(c1ccccc1)c1ccccc1`, the melting point was 150 to 152 °C. As to `CCCc1c2c(c(OC)c3c(=O)cc(C(=O)O)oc13)CCCC2`, the melting point lay in the range of 228 to 229 °C. To `O=c1ccc(-c2c(-c3ccccc3)nn3ccccc23)nn1C1CCCCC1=NO` (stereo not given) belongs 238 to 240 °C; to `CN(C)c1ccc(S(=O)(=O)N2CCCC2=O)cc1`, 202 to 204 °C; to `CSc1nc(SCc2ccccc2)n[nH]1`, 80 to 82 °C.

Compound `COc1cc2nc(N)nc(-c3ccc(O)c(Br)c3)c2cc1OC` showed a melting point of 233 to 234 °C. In the case of `COc1ccc(C=C(C#N)C#N)cc1OC` it was 108 °C; in that of `COc1ccc(Oc2ccc(NC(=O)N3CCc4ccccc4CC3)cn2)cc1`, 156 to 157 °C; in that of `Cc1ccc(S(=O)(=O)NC(=O)C(C)(NC(=O)NN(C)C)C(C)C)cc1` (stereo not given), 96 to 98 °C. Consider `CC=C(NC(=O)C1CC1(CC)CC)C(=O)O` (stereo not given), for which the melting point was in the range of 129 to 130 °C. With `c1ccc(CSc2cnccn2)cc1`, the melting point is 65 to 67 °C. In turn, `COc1ccc(C2(CCN3CCC(C(N)=O)(c4ccccc4)CC3)CCN(C(=O)c3cc(OC)c(OC)c(OC)c3)C2)cc1OC` (stereo not given) displayed a melting point of 60 to 62 °C.

`O=C(O)/C=C\C=C(c1ccccc1)c1ccccc1` registered a melting point of 175 to 176 °C. To `CCCNCCc1ccc(NS(=O)(=O)c2ccc(Br)cc2)cc1` belongs 141 to 143 °C; to `COc1cc(C)cc2c(Br)ccc(OC(C)C)c12`, 78 °C; to `CCOC(=O)C1=C2C(=CC3=C(CCCC3)N2O)SC1C` (stereo not given), 135 to 136 °C.

`CCn1c(NC)n[nH]c1=O`: the melting point is 208 to 210 °C. In the case of `CN(C)Cc1ccc(CSCCNC(=O)C=CC(=O)NCCCOc2cccc(CN3CCCC3)c2)o1` it was 126 to 128 °C; in that of `NCCOc1cc(Cl)cc(Cl)c1`, 86 to 89 °C.
